The test system of series [1] is CHRC5 cell line. As to the kind of experiment: Tested for in vitro proliferation and viability of multidrug resistant CHRC5 Chinese hamster cells in the presence and absence of doxorubicin in a modified MTT assay. The format is functional, cell-based, Cricetulus griseus.
Series [2] can be described thus: Half-life at pH 2.0 and 37 degree C. The format is ADME. To be noted: buffer.
Series [3] has as its system CHRC5 cell line. Briefly: Compound was tested for its cytotoxic effect on CHRC5 Chinese hamster cells at a dose of 1 uM; not cytotoxic. The series is classed as functional, cell-based. To be noted: Cricetulus griseus.
A short description of series [4]: Binding affinity to glycoprotein p was tested.

The structures appear in SMILES notation.

Consider `OC(COc1cccc2ncccc12)CN1CCN(C2c3ccccc3CCc3ccccc32)CC1` (stereo not drawn), for which a half-maximal effect in the series with CHRC5 cell line [1] (Cricetulus griseus, CHRC5) (EC50) was put at 0.065 µM. The same measure, in the same setting: the figure for `COc1ccc(CCN(C)CCCC(C#N)(c2ccc(OC)c(OC)c2)C(C)C)cc1OC` (stereo not drawn) is 1.2 µM. The same measure, in the same setting: the figure for `OC(COc1cccc2ncccc12)CN1CCN(C2c3ccccc3C3CC3c3ccccc32)CC1` (stereo not drawn) is 0.04 µM. For `OC(COc1cccc2ncccc12)CN1CCN(C2c3ccccc3C3C(c4ccccc42)C3(Cl)Cl)CC1` (racemic), the EC50 (as a rule, the concentration giving half of the maximal effect) in the series on CHRC5 cell line [1] (chrc5) is 0.07 µM.

As to `OC(COc1cccc2ncccc12)CN1CCN(C2c3ccccc3C3C(c4ccccc42)C3(F)F)CC1` (single isomer, unassigned), in the series on CHRC5 cell line [1] (chrc5), a half-maximal effect (EC50) was put at 0.19 µM. In the series on CHRC5 cell line [1] (Cricetulus griseus, CHRC5), `OC(COc1cccc2ncccc12)CN1CCN(C2c3ccccc3C3C(c4ccccc42)C3(Cl)Cl)CC1` (stereo in doubt; form 1) gave an EC50 of 0.1 µM. Besides, in series [2], the half-life – broadly, the time in which the quantity being followed falls by half – was > 72 h. `OC(COc1cccc2ncccc12)CN1CCN(C2c3ccccc3C3C(c4ccccc42)C3(F)F)CC1` (stereo in doubt; form 1) [listing 1 of 2 here] yielded an EC50 in the series with CHRC5 cell line [1] (chrc5) of 0.05 µM. Further, the half-life in series [2] was > 72 h. Consider `OC(COc1cccc2ncccc12)CN1CCN(C2c3ccccc3C3C(c4ccccc42)C3(F)F)CC1` (stereo in doubt; form 1) [listing 2 of 2 here], for which the Activity result with CHRC5 cell line [3] is “Non-toxic”. For `OC(COc1cccc2ncccc12)CN1CCN(C2c3ccccc3C3C(c4ccccc42)C3(Cl)Cl)CC1` (stereo in doubt; form 2), the EC50 in the series with CHRC5 cell line [1] (chrc5) turned out to be 0.055 µM. Same read-out and setting: under `OC(COc1cccc2ncccc12)CN1CCN(C2c3ccccc3C3C(c4ccccc42)C3(F)F)CC1` (stereo in doubt; form 2) [listing 1 of 2 here] stands 0.06 µM.

On to `OC(COc1cccc2ncccc12)CN1CCN(C2c3ccccc3C3C(c4ccccc42)C3(F)F)CC1` (stereo in doubt; form 2) [listing 2 of 2 here], for which the Activity result in the series on CHRC5 cell line [3] was “Non-toxic”. `OC(COc1cccc2ncccc12)CN1CCN(C2c3ccccc3C3C(c4ccccc42)C3(F)F)CC1` (stereo in doubt; form 3): the EC50 in the series with CHRC5 cell line [1] (chrc5) was determined as 0.18 µM. The same measure, in the same setting: the figure for `OC(COc1cccc2ncccc12)CN1CCN(C2c3ccccc3C3C(c4ccccc42)C3(F)F)CC1` (stereo in doubt; form 4) is 0.2 µM. Consider `OC(COc1cccc2ncccc12)CN1CCN(C2c3ccccc3C3C(c4ccccc42)C3(F)F)CC1` (stereo in doubt; form 5) [listing 1 of 2 here], for which the midpoint of the response in the series on CHRC5 cell line [1] (chrc5), the EC50, lay at 0.0207 µM. For the same compound, the IC50 (in general, the concentration at which inhibition is half-maximal) in series [4] was found to be 0.04 µM. In the case of `OC(COc1cccc2ncccc12)CN1CCN(C2c3ccccc3C3C(c4ccccc42)C3(F)F)CC1` (stereo in doubt; form 5) [listing 2 of 2 here], in the series on CHRC5 cell line [3], the Activity result was “Non-toxic”.

These data come from ChEMBL document CHEMBL1128056, “Methanodibenzosuberylpiperazines as potent multidrug resistance reversal agents” (Bioorg Med Chem Lett, 1995).
